From PubChem BioAssay AID1963828 (Molecular Pharmacology Branch, DTP, NCI, 2024)

Tested on: 991263-137-R1-J2-PDC complex spheroid viability
Test: Anticancer human tumor 991263-137-R1-J2-PDC patient-derived colon adenocarcinoma cell line growth inhibition [POLQ]
Conditions: for IC50: curve of first compound; for viability, T/C: stronger effect = lower value
Method in brief: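 Complex spheroid viability model combining PDC tumour cells with endothelial (HUVEC) and MSC stromal cells. Novobiocin, ART-558 or RP6685 were tested singly and in combination with standard and investigational anticancer drugs. Each was titrated in half-log steps from near clinical Cmax, or from 10 microM where Cmax was unknown.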

[1] = second compound 0.0316 µM, first compound 0.0316 µM
[2] = second compound 0.0316 µM, first compound 0.1 µM
[3] = second compound 0.0316 µM, first compound 0.316 µM
[4] = second compound 0.0316 µM, first compound 1 µM
[5] = second compound 0.0316 µM, first compound 3.16 µM
[6] = second compound 0.0316 µM, first compound 10 µM
[7] = second compound 0.1 µM, first compound 0.0316 µM
[8] = second compound 0.1 µM, first compound 0.1 µM
[9] = second compound 0.1 µM, first compound 0.316 µM
[10] = second compound 0.1 µM, first compound 1 µM
[11] = second compound 0.1 µM, first compound 3.16 µM
[12] = second compound 0.1 µM, first compound 10 µM
[13] = second compound 0.316 µM, first compound 0.0316 µM
[14] = second compound 0.316 µM, first compound 0.1 µM
[15] = second compound 0.316 µM, first compound 0.316 µM
[16] = second compound 0.316 µM, first compound 1 µM
[17] = second compound 0.316 µM, first compound 3.16 µM
[18] = second compound 0.316 µM, first compound 10 µM
[19] = second compound 1 µM, first compound 0.0316 µM
[20] = second compound 1 µM, first compound 0.1 µM
[21] = second compound 1 µM, first compound 0.316 µM
[22] = second compound 1 µM, first compound 1 µM
[23] = second compound 1 µM, first compound 3.16 µM
[24] = second compound 1 µM, first compound 10 µM
[25] = second compound 3.16 µM, first compound 0.0316 µM
[26] = second compound 3.16 µM, first compound 0.1 µM
[27] = second compound 3.16 µM, first compound 0.316 µM
[28] = second compound 3.16 µM, first compound 1 µM
[29] = second compound 3.16 µM, first compound 3.16 µM
[30] = second compound 3.16 µM, first compound 10 µM
[31] = second compound 10 µM, first compound 0.0316 µM
[32] = second compound 10 µM, first compound 0.1 µM
[33] = second compound 10 µM, first compound 0.316 µM
[34] = second compound 10 µM, first compound 1 µM
[35] = second compound 10 µM, first compound 3.16 µM
[36] = second compound 10 µM, first compound 10 µM
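Further: spheroids exposed to compounds for 7 days before readout.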
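Wherever viability, T/C is given: 100% = DMSO vehicle control viability.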

O=C(Nc1ccc(O)c(NS(=O)(=O)c2ccc(F)cc2)c1)c1ccc(-c2ccccc2)cc1 + Cc1cccc(N(C)C(=O)C2C(O)CCN2c2nc(C)cc(C(F)(F)F)c2C#N)c1
IC50 (second compound 0.0316 µM): > 10000 nM
IC50 (second compound 0.1 µM): > 10000 nM
IC50 (second compound 0.316 µM): > 10000 nM
IC50 (second compound 1 µM): > 10000 nM
IC50 (second compound 3.16 µM): > 10000 nM
IC50 (second compound 10 µM): > 10000 nM
viability, T/C [1]: 103%
viability, T/C [2]: 99.6%
viability, T/C [3]: 90.9%
viability, T/C [4]: 101%
viability, T/C [5]: 87.2%
viability, T/C [6]: 92%
viability, T/C [7]: 96.8%
viability, T/C [8]: 95.7%
viability, T/C [9]: 113%
viability, T/C [10]: 94.8%
viability, T/C [11]: 99%
viability, T/C [12]: 91%
viability, T/C [13]: 98.3%
viability, T/C [14]: 97.5%
viability, T/C [15]: 103%
viability, T/C [16]: 80.9%
viability, T/C [17]: 99.6%
viability, T/C [18]: 86.5%
viability, T/C [19]: 99.2%
viability, T/C [20]: 99%
viability, T/C [21]: 106%
viability, T/C [22]: 94.2%
viability, T/C [23]: 103%
viability, T/C [24]: 80.1%
viability, T/C [25]: 96.4%
viability, T/C [26]: 96.2%
viability, T/C [27]: 95.2%
viability, T/C [28]: 109%
viability, T/C [29]: 105%
viability, T/C [30]: 85.8%
viability, T/C [31]: 93.7%
viability, T/C [32]: 95.9%
viability, T/C [33]: 90.5%
viability, T/C [34]: 96.8%
viability, T/C [35]: 105%
viability, T/C [36]: 87.5%

CC(=O)O[C@H]1C(=O)[C@@]2(C)[C@H]([C@H](OC(=O)c3ccccc3)[C@]3(O)C[C@H](OC(=O)[C@H](O)[C@@H](NC(=O)c4ccccc4)c4ccccc4)C(C)=C1C3(C)C)[C@]1(OC(C)=O)CO[C@@H]1C[C@@H]2O + Nc1ccc(C#CCN(C(=O)Cc2ncc(C(F)(F)F)cc2C(F)(F)F)c2ccc(F)cc2)nn1
IC50 (second compound 0.0316 µM): > 3000 nM
IC50 (second compound 0.1 µM): > 3000 nM
IC50 (second compound 0.316 µM): 2530 nM
IC50 (second compound 1 µM): > 3000 nM
IC50 (second compound 3.16 µM): > 3000 nM
IC50 (second compound 10 µM): > 3000 nM
viability, T/C (second compound 0.0316 µM, first compound 0.00949 µM): 98.6%
viability, T/C (second compound 0.0316 µM, first compound 0.03 µM): 89.7%
viability, T/C (second compound 0.0316 µM, first compound 0.0949 µM): 84.9%
viability, T/C (second compound 0.0316 µM, first compound 0.3 µM): 77.8%
viability, T/C (second compound 0.0316 µM, first compound 0.949 µM): 55.3%
viability, T/C (second compound 0.0316 µM, first compound 3 µM): 56.6%
viability, T/C (second compound 0.1 µM, first compound 0.00949 µM): 93.9%
viability, T/C (second compound 0.1 µM, first compound 0.03 µM): 96.5%
viability, T/C (second compound 0.1 µM, first compound 0.0949 µM): 87.9%
viability, T/C (second compound 0.1 µM, first compound 0.3 µM): 85.8%
viability, T/C (second compound 0.1 µM, first compound 0.949 µM): 55.1%
viability, T/C (second compound 0.1 µM, first compound 3 µM): 50.9%
viability, T/C (second compound 0.316 µM, first compound 0.00949 µM): 93.9%
viability, T/C (second compound 0.316 µM, first compound 0.03 µM): 95.6%
viability, T/C (second compound 0.316 µM, first compound 0.0949 µM): 85.3%
viability, T/C (second compound 0.316 µM, first compound 0.3 µM): 80%
viability, T/C (second compound 0.316 µM, first compound 0.949 µM): 58%
viability, T/C (second compound 0.316 µM, first compound 3 µM): 48.9%
viability, T/C (second compound 1 µM, first compound 0.00949 µM): 92.5%
viability, T/C (second compound 1 µM, first compound 0.03 µM): 96.9%
viability, T/C (second compound 1 µM, first compound 0.0949 µM): 98%
viability, T/C (second compound 1 µM, first compound 0.3 µM): 66.4%
viability, T/C (second compound 1 µM, first compound 0.949 µM): 57.7%
viability, T/C (second compound 1 µM, first compound 3 µM): 51.7%
viability, T/C (second compound 3.16 µM, first compound 0.00949 µM): 90.2%
viability, T/C (second compound 3.16 µM, first compound 0.03 µM): 87.1%
viability, T/C (second compound 3.16 µM, first compound 0.0949 µM): 68.7%
viability, T/C (second compound 3.16 µM, first compound 0.3 µM): 60.6%
viability, T/C (second compound 3.16 µM, first compound 0.949 µM): 51.4%
viability, T/C (second compound 3.16 µM, first compound 3 µM): 50.6%
viability, T/C (second compound 10 µM, first compound 0.00949 µM): 84.6%
viability, T/C (second compound 10 µM, first compound 0.03 µM): 72%
viability, T/C (second compound 10 µM, first compound 0.0949 µM): 53.8%
viability, T/C (second compound 10 µM, first compound 0.3 µM): 58.1%
viability, T/C (second compound 10 µM, first compound 0.949 µM): 49.5%
viability, T/C (second compound 10 µM, first compound 3 µM): 50.2%

COc1cccc2c1C(=O)c1c(O)c3c(c(O)c1C2=O)CC(O)(C(=O)CO)CC3OC1CC(N)C(O)C(C)O1 (stereo unspecified) + Nc1ccc(C#CCN(C(=O)Cc2ncc(C(F)(F)F)cc2C(F)(F)F)c2ccc(F)cc2)nn1
IC50 (second compound 0.0316 µM): 1270 nM
IC50 (second compound 0.1 µM): 1480 nM
IC50 (second compound 0.316 µM): 1250 nM
IC50 (second compound 1 µM): 1040 nM
IC50 (second compound 3.16 µM): 822 nM
IC50 (second compound 10 µM): 614 nM
viability, T/C [1]: 102%
viability, T/C [2]: 92.4%
viability, T/C [3]: 92.8%
viability, T/C [4]: 51.7%
viability, T/C [5]: 43.4%
viability, T/C [6]: 42.6%
viability, T/C [7]: 103%
viability, T/C [8]: 97.8%
viability, T/C [9]: 91.5%
viability, T/C [10]: 53.2%
viability, T/C [11]: 45.1%
viability, T/C [12]: 40.2%
viability, T/C [13]: 94.7%
viability, T/C [14]: 98%
viability, T/C [15]: 91.9%
viability, T/C [16]: 53%
viability, T/C [17]: 38%
viability, T/C [18]: 35.1%
viability, T/C [19]: 88.6%
viability, T/C [20]: 109%
viability, T/C [21]: 81.8%
viability, T/C [22]: 52%
viability, T/C [23]: 37.4%
viability, T/C [24]: 37.4%
viability, T/C [25]: 90.6%
viability, T/C [26]: 94.3%
viability, T/C [27]: 76.9%
viability, T/C [28]: 43.8%
viability, T/C [29]: 38.4%
viability, T/C [30]: 28.8%
viability, T/C [31]: 91.6%
viability, T/C [32]: 88.4%
viability, T/C [33]: 61.2%
viability, T/C [34]: 39.3%
viability, T/C [35]: 28.8%
viability, T/C [36]: 16.4%
